Measurements taken from patent US8420642B2, “Pyridine derivatives useful as glucokinase activators” (Merck Patent GmbH, priority 2007, dated 2013).
pEC50: −log10 of the molar value.

Columns and labels:
[1] = molecular target: T1, glucokinase (GK), human enzyme (Homo sapiens, UniProt P35557); assay: Glucokinase Activation Screening Assay (coupled enzyme assay with PK/LDH, NADH decline at 340 nm); type: biochemical; conditions: for fold activation (human): relative to control incubation with 2 mM glucose; for pEC50: 2 mM glucose
T1 sequence (P35557 1-465): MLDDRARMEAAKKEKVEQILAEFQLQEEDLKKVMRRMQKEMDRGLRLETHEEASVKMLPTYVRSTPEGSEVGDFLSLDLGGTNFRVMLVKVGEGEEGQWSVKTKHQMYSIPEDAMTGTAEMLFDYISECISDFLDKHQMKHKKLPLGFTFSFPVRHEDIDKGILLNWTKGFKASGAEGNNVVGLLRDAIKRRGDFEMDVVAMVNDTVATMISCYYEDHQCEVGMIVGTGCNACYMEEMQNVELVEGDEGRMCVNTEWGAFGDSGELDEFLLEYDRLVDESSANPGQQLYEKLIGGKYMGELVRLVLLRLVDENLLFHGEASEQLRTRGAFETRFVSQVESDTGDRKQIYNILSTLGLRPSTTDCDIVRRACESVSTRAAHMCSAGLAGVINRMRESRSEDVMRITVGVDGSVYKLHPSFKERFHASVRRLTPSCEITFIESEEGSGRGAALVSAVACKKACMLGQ
Protocol: Glucokinase Activation Screening Assay
GK activity (human or rat enzyme) is measured by an coupled enzyme assay using pyruvate kinase (PK) and lactate dehydrogenase (LDH) as coupling enzymes. GK activity is calculated from the decline in NADH monitored photometrically with a microtiter plate (MTP) reader at 340 nm. For screening purposes, the GK assay is routinely run in a 384-MTP format, in a total volume of 33 μl/well. 10 μl of the ATP-regeneration solution (in HEPES-buffer*, pH 7.0, 6.73 U/ml pyruvate kinase, 6.8 U/ml lactate dehydrogenase) and 10 μl of the glucokinase-/glucose solution (15 μg/ml, 6.6 mM glucose in HEPES-buffer*, pH 7.0; the concentration of the glucose stock-solution was 660 mM in Millipore H2O) were mixed together with 3 μl of a 10% DMSO solution (in HEPES-buffer*, pH 7.0) containing 3.3-fold the amounts of the compounds to achieve final compound concentrations in the range between 1 nM to 30 μM (sometimes 300 μM) in the assay solution (s. below). The solutions were mixed for 5 sec, and after a centrifugation at 243×g for 5 min, the solutions were preincubated for 25 min at room temperature.
The reaction was started by the addition of 10 μl of the NADH-/ATP-solution (4.29 mM NADH, 4.95 mM ATP, in HEPES-buffer*). The MTP was shaken for 5 sec., and then, the absorbance at 340 nm was monitored continuously in a MTP-reader (TECAN Spectro fluor plus) for the next 27 min (with a MTP-cycling time of 199 sec.). The final concentrations of the various components were as follows: 49.5 mM Hepes, pH 7.0, 1.49 mM PEP, 1.3 mM NADH, 49.5 mM KCl, 4.96 mM MgCl2, 1.5 mM Mg-ATP, 1.98 mM DTT, 2.04 U/ml pyruvate kinase, 2.06 U/ml lactate-dehydrogenase, 0.91% DMSO, 0.15 μg/well glucokinase, and test compounds in the range between 1 nM and 300 μM.
The change in the optical density (ΔOD340 nm) in the presence of the compound was expressed relative to the ΔOD340 nm, ctrl of the control incubation (in the presence of 2 mM glucose and 0.91% DMSO), taking into account the optical density of the blank sample (incubation in the absence of 2 mM glucose). For the determination of the half maximal effective concentration (EC50), the %−Ctrl-values were plotted in a semi-logarithmic graph against the conc. of the compound of interest. The data points were fitted to a sigmoid curve function (f(x)=((%−Ctrlmax%−Ctrlmin)/(1−(EC50/x**^n(Hill)))+%−Ctrlmin)) by a non-linear regression analysis.
* Hepes-buffer (50 mM Hepes, pH 7.0, 5 mM MgCl2, 50 mM KCl, 1.5 mM PEP, 0.1% BSA). DTT was added to the Hepes-buffer from a 200× stock solution (in Millipore H2O) freshly each day. The final concentration of DTT in the Hepes-buffer is 2 mM.

Row | Structure (SMILES) | melting point [°C] | fold activation (human) [1] | pEC50 [1]
1 | Cc1csc(Nc2ccc(Br)cn2)n1 [A1, (5-bromo-pyridine-2-yl)-(4-methyl-thiazole-2-yl)-amine] | 241.5 to 242.6 | D (fold activation: 1.2-5 μM = D) | –
2 | BrCc1csc(Nc2ccc(Br)cn2)n1 [A2, (4-bromomethyl-thiazole-2-yl)-(5-bromo-pyridine-2-yl)-amine] | – | D (fold activation: 1.2-5 μM = D) | 5.00 to 6.00
3 | Brc1ccc(Nc2nc(Cn3ccnc3)cs2)nc1 [A3, (5-bromo-pyridine-2-yl)-(4-imidazole-1-ylmethyl-thiazole-2-yl)-amine] | – | D (fold activation: 1.2-5 μM = D) | 5.00 to 6.00
4 | CCOC(=O)c1csc(Nc2ccc(Br)cn2)n1 [A4, 2-(5-bromo-pyridine-2-ylamino)-thiazole-4-carboxylic acid ethyl ester] | 299.8 to 300.8 | D (fold activation: 1.2-5 μM = D) | –
5 | CC(=O)OCc1csc(Nc2ccc(Br)cn2)n1 [A5, acetic acid 2-(5-bromo-pyridine-2-ylamino)-thiazole-4-ylmethyl ester] | 200.9 to 201.6 | D (fold activation: 1.2-5 μM = D) | 5.00 to 6.00
6 | OCc1csc(Nc2ccc(Br)cn2)n1 [A6, [2-(5-bromo-pyridine-2-ylamino)-thiazole-4-yl]-methanol] | 207 to 209 | D (fold activation: 1.2-5 μM = D) | –
7 | NCCSCc1csc(Nc2ccc(Br)cn2)n1 [A7, [4-(2-amino-ethylsulfanylmethyl)-thiazole-2-yl]-(5-bromopyridine-2-yl)-amine] | – | D (fold activation: 1.2-5 μM = D) | < 5.00
8 | c1ccc(Oc2ccc(Nc3nccs3)nc2)cc1 [A8, (5-phenoxy-pyridine-2-yl)-thiazole-2-yl-amine] | 161.4 to 162.4 | D (fold activation: 1.2-5 μM = D) | < 5.00
9 | CC(=O)OCc1csc(Nc2ccc(Oc3ccccc3)cn2)n1 [A9, acetic acid 2-(5-phenoxy-pyridine-2-ylamino)-thiazole-4-ylmethyl ester] | 158.5 to 160.5 | D (fold activation: 1.2-5 μM = D) | < 5.00
10 | OCc1csc(Nc2ccc(Oc3ccccc3)cn2)n1 [A10, [2-(5-phenoxy-pyridine-2-ylamino)-thiazole-4-yl]-methanol] | 130 to 131 | E (5-10 μM = E) | 5.00 to 6.00
11 | c1ccc(Sc2ccc(Nc3nccs3)nc2)cc1 [A12, (5-phenylsulfanyl-pyridine-2-yl)-thiazole-2-yl-amine] | – | D (fold activation: 1.2-5 μM = D) | < 5.00
12 | [O-][S+](c1ccccc1)c1ccc(Nc2nccs2)nc1 (centres unmarked) [A13, (5-phenylsulfinyl-pyridine-2-yl)-thiazole-2-yl-amine] | – | D (fold activation: 1.2-5 μM = D) | –
13 | O=S(=O)(c1ccccc1)c1ccc(Nc2nccs2)nc1 [A14, (5-phenylsulfonyl-pyridine-2-yl)-thiazole-2-yl-amine] | – | D (fold activation: 1.2-5 μM = D) | < 5.00
14 | COCCOc1cc(Oc2ccccc2)cnc1Nc1nccs1 [A20, [3-(2-methoxy-ethoxy)-5-phenoxy-pyridine-2-yl]-thiazole-2-yl-amine] | 140.6 to 140.9 | E (5-10 μM = E) | 5.00 to 6.00
15 | c1ccc(Oc2cnc(Nc3nccs3)c(OC3CCCC3)c2)cc1 [A21, (3-cyclopentyloxy-5-phenoxy-pyridine-2-yl)-thiazole-2-yl-amine] | – | E (5-10 μM = E) | 6.00 to 8.00
16 | CCCOc1ccc(Nc2ccn(C)n2)nc1 [A23, (1-methyl-1H-pyrazole-3-yl)-(5-propoxy-pyridine-2-yl)-amine] | – | D (fold activation: 1.2-5 μM = D) | –
17 | COCC(C)Oc1cc(Oc2ccccc2)cnc1Nc1nccs1 (centres unmarked) [A28, [3-(2-Methoxy-1-methyl-ethoxy)-5-phenoxy-pyridine-2-yl]-thiazole-2-yl-amine] | – | E (5-10 μM = E) | 5.00 to 6.00
18 | c1ccc(Oc2cnc(Nc3nccs3)c(OCC3CCCC3)c2)cc1 [A29, (3-cyclopentylmethoxy-5-phenoxy-pyridine-2-yl)-thiazole-2-yl-amine] | – | D (fold activation: 1.2-5 μM = D) | 6.00 to 8.00
19 | c1ccc(COc2ccc(Nc3nccs3)nc2)cc1 [A30, (5-benzyloxy-pyridine-2-yl)-thiazole-2-yl-amine] | – | D (fold activation: 1.2-5 μM = D) | –
20 | COCCOc1cc(Oc2cccnc2)cnc1Nc1nccs1 [A31, [3-(2-methoxy-ethoxy)-5-(pyridine-3-yloxy)-pyridine-2-yl]-thiazole-2-yl-amine] | – | E (5-10 μM = E) | –
21 | COCCOc1cc(Oc2ccc(S(C)(=O)=O)cc2)cnc1Nc1nccs1 [A32, [5-(4-methanesulfonyl-phenoxy)-3-(2-methoxy-ethoxy)pyridine-2-yl]-thiazole-2-yl-amine] | – | E (5-10 μM = E) | 5.00 to 6.00
22 | CS(=O)(=O)c1ccc(Oc2ccc(Nc3ccccn3)nc2)cc1 [A94] | – | E (5-10 μM = E) | –
23 | COCCOc1cc(Oc2ccccc2)cnc1Nc1cnccn1 [A95] | – | D (fold activation: 1.2-5 μM = D) | –
24 | COCCOc1cc(Oc2ccccc2)cnc1Nc1ccccn1 [A96] | – | D (fold activation: 1.2-5 μM = D) | –
25 | COCCOc1cc(Oc2ccccc2)cnc1Nc1ccn(C)n1 [A97] | – | E (5-10 μM = E) | –
